From patent US20240327456A1, “CANCER THERAPEUTICS” (UNIVERSITAT DE BARCELONA, priority 2021, published 2024) come the findings set out here.

The structures appear in SMILES notation. Converted amounts (≈) assume the structure as drawn. “Also recorded” adds a separate entry of the source. Read-outs that look alike come from different tables or passages of the source. Numbered stars: 1 amine (or outer) side, 2 acyl side, 3 side chain; on linkers, the order of the positions; unused ones are H or OH. Square brackets hold non-standard residues; d marks the D form. Peptide text beside a SMILES is read from it. * marks the point of attachment. Diphenylacetyl = O=C(C(c1ccccc1)c1ccccc1)*; Phe(4-Me) = Cc1ccc(C[CH](N)C(=O)O)cc1; NMeβAla = CN(CCC(=O)[*:2])[*:1]; Cha = N[CH](CC1CCCCC1)C(=O)O; Chg = N[CH](C(=O)O)C1CCCCC1; X1 = C1CCC2(CC1)CCN(*)CC2; Dab = NCC[CH](N)C(=O)O; Bz = O=C(c1ccccc1)*

Data set [1] deals with Ras signaling pathway (Raf/ERK and PI3K/AKT). The data set is described as follows: Western blot of RAS signaling pathways in EGF-stimulated serum starved hTERT-RPE cells. Type of data set: cell-based, human. The conditions noted are these: 50 μM, 0.5% DMSO, 2 h before EGF 50 ng/mL 10 min. The method, then: Cells were seeded in a media containing 10% FBS for 24 hours and were serum starved (0.5%) for the next 24 hours. Afterwards, they were incubated with different concentrations of the compounds for 2 hours. A successive treatment for 10 minutes with EGF (50 ng/mL) (Sigma-Aldrich) was performed in order to activate cell signaling.
Proteins were resolved by SDS-PAGE and transferred onto PVDF membranes (Immobilon-P, Millipore). Non-specific binding of the antibodies was assessed by incubating the membranes for 1 hour at room temperature with a buffer composed of 20 mM Tris-HCl pH 7.5, 150 mM NaCl, 0.05% Tween 20 and 5% bovine serum albumin. Protein expression was determined by probing the blots overnight at 4° C. with the specified antibodies:anti-c-RAF (BD Transduction 610151, 1:500); anti-phospho-c-RAF S338 (Cell Signaling 9427, 1:500); anti-PI3Kp110a (Cell Signaling 4249, 1:1000); anti-AKT (Cell Signaling 9272, 1:1000); anti-phospho-AKT S473 (Cell Signaling 4060, 1:1000); anti-phospho-AKT Thr308 (Cell Signaling 4056, 1:1000); anti-p44/42 MAPK (ERK1/2) (Cell Signaling 9102, 1:2000); anti-phospho-p44/42 MAPK(ERK1/2) T202/Y204 (Cell Signaling 4370, 1:2000); anti-GAP120 (Santa Cruz SC-63, 1:200); anti-HA (Sigma-Aldrich H6908, 1:1000); or anti-α-tubulin (Sigma-Aldrich T9026, 1:2000). Next, after washing the membranes they were incubated with the corresponding HRP-coupled secondary antibodies (goat anti-rabbit BioRad 170-6515 or goat anti-mouse BioRad 170-6516, 1:3000) for 60 minutes at room temperature and washed again. Protein detection was performed by enhanced chemiluminescence (EZ-ECL, Biological Industries). Emitted light was captioned and quantified (ChemiDoc, BioRad).
For analysis of RAS signalling, cells were lysed in a buffer containing 67 mM Tris-HCl pH 6.8 and 2% SDS and then the samples were heated at 97° C. for 15 minutes. After this, the protein concentration of the lysates was assayed using the Lowry method. An aliquot of 15 μg of protein per sample was loaded onto the gels.
GAP120 detection was used as control.
To consider a peptidomimetic as a positive hit, it should inhibit the activity of the two protein cascades, and as a consequence the phosphorylation of the RAF (P-RAF), AKT (P-AKT) and ERK (P-ERK) should not be observed.

The nature of the next data set: PAMPA assay. In kind it is in vitro ADME. The following applies: for Pe / Retention %: mean±SD. The source says:
As part of our analysis, we evaluated IP-14-01, IP-14-03 and IP-14-08 and their biophysical properties by studying them using a solution of 5% DMSO in water. We conducted a permeability through biological barriers (PAMPA assay) and their internalization in SH-SY5Y cells.
(§1) The methods used are well known and would be known to one of skill in the art. As a control, we evaluated the solubility in water which contained 5% DMSO to identify any possible issue related with a low solubility. Data are expressed as the mean±SD.
(In general: In PAMPA a lipid-coated filter parts donor from acceptor wells.)

Data set [2] is described as follows: Solubility in water at 5% DMSO. Type of data set: physicochemical.
Source text: as §1

The test system of data set [3] is pancreatic adenocarcinoma human cell lines (MPanc-96, HPAF-II, PA-TU-8902, SW1990, PA-TU 8988T, PANC-1). In kind it is cell-based. The conditions noted are these: cancer cell lines versus hTERT-RPE, MTS. The procedure: Cells cultured in 10% FCS were treated with compound (I) in a dose range from 0 to 25 µM and incubated for 24 h, when cell viability was determined by MTS assay. Experiment was repeated 3 times. Differences were assessed using one-way ANOVA and Tukey Multiple Comparisons Test and considered significant when p≤0.05.
10,000 cells in 50 μL of 10% FBS-containing medium, were cultured for 24 h and then treated with the drugs (50 μL final volume) for a further 24 h in each well of a 96-well plate (100 μL final volume). MTS viability assay (CellTiter 96® Aqueous One Solution Cell Proliferation Assay, Promega G3580) was performed following the manufacturer's specifications. The absorbance of each well was measured with a multimode plate reader (Spark, Tecan) at 490 nm. The percentage of cell viability was calculated by dividing the absorbance of each well by the average absorbance of the control wells (which had no significant deviation when Student's t-test was applied).
We next incubated IPR-473 at several concentrations with different cancer cell lines and a normal cell line (-hTERT-RPE cells). Cell viability was measured by a MTS cell proliferation assay. […] Cells were placed in a 96-well plate culture containing 10% FBS (Bilogical Industries)-containing medium. (10000 cell per well). These cells were then cultured for 24 hours and then treated with IPR-473 at concentrations of 10 μM, 15 μM, 20 μM and 25 μM for a further 24 hours incubation.
The different cell lines used included human pancreatic cancer cells MPANC-96, human pancreatic adenocarcinoma cells HPAF-II, human pancreatic grade II adenocarcinoma PA-TU, human pancreatic ductaladenocarcinoma SW1990, human pancreas adenocarcinoma 8988-T and human pancreatic ductal carcinoma PANC-1. Each of these comprises a pancreatic tumor cell line. The control as stated was hTERT-RPE cells and that are not cancerigenous.

Data set [4] can be described thus: Solubility in PBS with 15% β-cyclodextrin. The following applies: 1 mM, 24 hours agitation, supernatant by HPLC; mean±SD. Type of data set: physicochemical. The procedure: xxxxx Furthermore, an additional effort was done to reevaluate those peptidomimetics from the first generation that were not soluble in the in vitro assay conditions or formed aggregates as described above when incubated with the RPE cells.
We then put these peptidomimetics under constant agitation for 24 hours. […] Data are expressed as the mean±SD.

For the molecule `CC(NC(=O)C(CN)NC(=O)CCN(C)C(=O)C(Cc1ccc(-c2ccccc2)cc1)NC(=O)C(c1ccccc1)c1ccccc1)C(=O)N1CCCC1` (stereo not shown) [IP-14-01], in data set [1], the “Inhibition of RAS-effectors protein cascades (P-RAF, P-AKT, P-ERK) by Western blot” value is given as “able to inhibit the two RAS-effectors protein cascades; also recorded: most potent inhibitor”. Further, in “PAMPA assay”, the Transport % was 0%, the Pe came to 5.6e-10 ± 3.1e-10 cm/s and the Retention % stood at 55.7 ± 7.1%. In data set [2], the “Solubility (in words)” value is given as “good solubility” and the solubility (usually how much of the substance goes into solution per volume) was determined as 1333 ± 13 µM (≈ 974 µg/mL). In addition, the “specificity cancer cells versus normal cells (cell viability)” value in data set [3] is on record as “did not show cell-line specificity”.

For the molecule `NCCCCC(NC(=O)C(Cc1ccccc1)NC(=O)C(CC1CCCC1)NC(=O)c1c2ccccc2cc2ccccc12)C(=O)N1CCCC1` (stereo not shown) [IP-14-02], the “Inhibition of RAS-effectors protein cascades (P-RAF, P-AKT, P-ERK) by Western blot” value in data set [1] is “able to inhibit the RAF and AKT but not ERK”.

As to `CC(NC(=O)C(NC(=O)CCN(C)C(=O)C(CN)NC(=O)C(c1ccccc1)c1ccccc1)C1CCCCC1)C(=O)N1CCC2(CCCCC2)CC1` (stereo not shown) [IP-14-03], in data set [1], the “Inhibition of RAS-effectors protein cascades (P-RAF, P-AKT, P-ERK) by Western blot” value is recorded as “able to inhibit the two RAS-effectors protein cascades”. In “PAMPA assay”, this molecule yielded a Transport % of 0%, a Pe of 1.6e-09 ± 3.6e-10 cm/s and a Retention % of 77.9 ± 2.4%. In data set [2], the “Solubility (in words)” value is given as “good solubility” and the solubility turned out to be 549 ± 90 µM (≈ 400 µg/mL).

Turning to `CC(C)CC(NC(=O)CCCN(C)C(=O)C(CCCN)NC(=O)C(Cc1cccc2ccccc12)NC(=O)c1c2ccccc2cc2ccccc12)C(=O)N1CCC2(CCCCC2)CC1` (stereo not shown) [IP-14-04], the “Conc. in PBS β-cyclodextrin 15%” value in data set [4] stood at 780 ± 30 µM.

With `CC(C)CC(NC(=O)COc1ccc(C(C)(C)C)cc1)C(=O)NC(Cc1cccc2ccccc12)C(=O)NC(CCCCN)C(=O)N1CCCCC1` (stereo not shown) [IP-14-05], in data set [4], the “Conc. in PBS β-cyclodextrin 15%” value is 849 ± 43 µM.

Take `CCC(C)C(NC(=O)C(c1ccccc1)c1ccccc1)C(=O)NC(CCc1ccccc1)C(=O)NC(CCCCN)C(=O)N1CCC2(CCCCC2)CC1` (stereo not shown) [IP-14-07]: in data set [4], the “Conc. in PBS β-cyclodextrin 15%” value worked out at 766 ± 19 µM.

`CC(C)CC(NC(=O)C(Cc1ccccc1)NC(=O)C1CCCN1C(=O)C(CCN)NC(=O)c1ccccc1)C(=O)N1CCC2(CCCCC2)CC1` (stereo not shown) [IP-14-08] (Bz-[Dab]PFL-X1; configuration not given here): the “Inhibition of RAS-effectors protein cascades (P-RAF, P-AKT, P-ERK) by Western blot” value in data set [1] was “able to inhibit the two RAS-effectors protein cascades”. Further, in “PAMPA assay”, the Transport % is 0%, the Pe is reported as 0 cm/s and the Retention % is 97.6 ± 5.0%. Further, the “Solubility (in words)” value in data set [2] (water at 5% DMSO) is recorded as “good solubility”. The solubility in data set [2] (water at 5% DMSO, mean±SD, read-out: Solubility) came to 1320 ± 22 µM (≈ 942 µg/mL).

Regarding `CC(C)CC(NC(=O)COc1ccc(C(C)(C)C)cc1)C(=O)NC(Cc1cccc2ccccc12)C(=O)NC(CN)C(=O)N1CCC2(CCCCC2)CC1` (stereo not shown) [IP-14-09], the “Conc. in PBS β-cyclodextrin 15%” value in data set [4] is 949 ± 8 µM.

In the case of `Cc1ccc(CC(NC(=O)C(c2ccccc2)c2ccccc2)C(=O)N(C)CCC(=O)NC(CC2CCCCC2)C(=O)NC(C(=O)N2CCCC2C(N)=O)C2CCCCC2)cc1` (stereo not shown) [IPR-471] (Diphenylacetyl-[Phe(4-Me)][NMeβAla][Cha][Chg]P-NH2; configuration not given here), the “Inhibition of RAS-effectors protein cascades (P-RAF, P-AKT, P-ERK) by Western blot” value in data set [1] is “not better than IP-14-01”.

Consider `CC(C)CC(NC(=O)C(CN)N(C)C(=O)CCN(C)C(=O)C(Cc1ccc(-c2ccccc2)cc1)NC(=O)C(c1ccccc1)c1ccccc1)C(=O)N1CCCC1` (stereo not shown) [IPR-473], for which, in data set [1], the “Inhibition of RAS-effectors protein cascades (P-RAF, P-AKT, P-ERK) by Western blot” value was “able to inhibit all the two different protein cascades (RAF/ERK and PI3K/AKT) more effectively than even IP-14-01; also recorded: highest degree of inhibition of the RAS effectors”. Besides, the “specificity cancer cells versus normal cells (cell viability)” value in data set [3] is recorded as “high specificity for pancreatic cancer cell lines”.

In the case of `CC(O)C(NC(=O)CCN(C)C(=O)C(Cc1ccc(-c2ccccc2)cc1)NC(=O)C(c1ccccc1)c1ccccc1)C(=O)NC(C(=O)N1CCCC1)C1CCCCC1` (stereo not shown) [IPR-474], the “Inhibition of RAS-effectors protein cascades (P-RAF, P-AKT, P-ERK) by Western blot” value in data set [1] is recorded as “not better than IP-14-01”.
